Several values for one entry are separate records, joined by “and”; a condition that tells them apart may be missing. Equal entries are not always repeated. Inconclusive results and toxic doses are left out. Rule for the calls: active = survival T/C of 150% or more; inactive = T/C below 125% in these data.
Test system: P388 leukemia ip, CD2F1 mice, survival T/C
Test: NCI In Vivo Anticancer Drug Screen. Data for tumor model P388 Leukemia (intraperitoneal) in CD2F1 (CDF1) mice
Details: endpoint: median survival time, higher = longer survival
Procedure, shortened: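 Mice carrying the transplanted tumor received test compound or vehicle. Survival was recorded in each group, and the value is the treated-group measurement divided by that of the vehicle-treated control group.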

[1] = dose: 12.5 mg/kg/injection, schedule: Q01DX005 (ip), vehicle: Klucel (hydroxypropylcellulose) (HPC)
[2] = dose: 25.0 mg/kg/injection, schedule: Q01DX005 (ip), vehicle: Klucel (hydroxypropylcellulose) (HPC)
[3] = dose: 25.0 mg/kg/injection, schedule: Q01DX009 (ip), vehicle: saline with Tween-80
[4] = dose: 25.0 mg/kg/injection, schedule: Q01DX009 (ip), vehicle: saline
[5] = dose: 50.0 mg/kg/injection, schedule: Q01DX009 (ip), vehicle: saline with Tween-80
[6] = dose: 50.0 mg/kg/injection, schedule: Q01DX009 (ip), vehicle: saline
[7] = dose: 100.0 mg/kg/injection, schedule: Q01DX009 (ip), vehicle: saline
[8] = dose: 100.0 mg/kg/injection, schedule: Q04DX003 (ip), vehicle: saline with Tween-80
[9] = dose: 200.0 mg/kg/injection, schedule: Q01DX009 (ip), vehicle: saline
[10] = dose: 50.0 mg/kg/injection, schedule: Q01DX005 (ip), vehicle: Klucel (hydroxypropylcellulose) (HPC)
[11] = dose: 100.0 mg/kg/injection, schedule: Q01DX005 (ip), vehicle: Klucel (hydroxypropylcellulose) (HPC)
[12] = dose: 200.0 mg/kg/injection, schedule: Q01DX005 (ip), vehicle: Klucel (hydroxypropylcellulose) (HPC)
[13] = dose: 12.5 mg/kg/injection, schedule: Q01DX009 (ip), vehicle: saline

Measured: T/C

O=C(O)/C=C/CCCCCO
inactive: dose: 100.0 mg/kg/injection, schedule: Q01DX001 (ip), vehicle: saline with Tween-80 94 % of control | dose: 200.0 mg/kg/injection, schedule: Q01DX001 (ip), vehicle: saline with Tween-80 97 % of control | dose: 400.0 mg/kg/injection, schedule: Q01DX001 (ip), vehicle: saline with Tween-80 90 % of control

[N-]=[N+]=CC(=O)CCC(NC(=O)OCc1ccccc1)C(=O)OCc1ccccc1 (centres undefined)
active: dose: 278.0 mg/kg/injection, schedule: Q01DX005 (ip), vehicle: Klucel (hydroxypropylcellulose) (HPC) 152 % of control
inactive: dose: 0.78 mg/kg/injection, schedule: Q01DX005 (ip), vehicle: Klucel (hydroxypropylcellulose) (HPC) 102 % of control | dose: 1.56 mg/kg/injection, schedule: Q01DX005 (ip), vehicle: Klucel (hydroxypropylcellulose) (HPC) 110 % of control | dose: 3.13 mg/kg/injection, schedule: Q01DX005 (ip), vehicle: Klucel (hydroxypropylcellulose) (HPC) 101 % of control | dose: 6.25 mg/kg/injection, schedule: Q01DX005 (ip), vehicle: Klucel (hydroxypropylcellulose) (HPC) 104 % of control | [1] 99 % of control and 101 % of control and 113 % of control | [2] 110 % of control and 120 % of control | dose: 36.0 mg/kg/injection, schedule: Q01DX005 (ip), vehicle: Klucel (hydroxypropylcellulose) (HPC) 107 % of control | dose: 60.0 mg/kg/injection, schedule: Q01DX005 (ip), vehicle: Klucel (hydroxypropylcellulose) (HPC) 120 % of control

NC(CO)C(=O)O (centres undefined)
inactive: dose: 12.5 mg/kg/injection, schedule: Q01DX009 (ip), vehicle: saline with Tween-80 102 % of control | [3] 105 % of control | [4] 110 % of control | [5] 114 % of control | [6] 112 % of control [middle of 4 runs] | [7] 104 % of control [middle of 4 runs] | [8] 99 % of control | [9] 110 % of control [middle of 4 runs] | dose: 200.0 mg/kg/injection, schedule: Q04DX003 (ip), vehicle: saline with Tween-80 97 % of control | dose: 400.0 mg/kg/injection, schedule: Q04DX003 (ip), vehicle: saline with Tween-80 100 % of control

C=CCN(CC=C)c1nc(N)c2cc(OC)c(OC)cc2n1
inactive: dose: 37.5 mg/kg/injection, schedule: Q01DX009 (ip), vehicle: suspension in saline 100 % of control | dose: 75.0 mg/kg/injection, schedule: Q01DX009 (ip), vehicle: suspension in saline 106 % of control

C1OC2C1OC1COC12 (centres undefined)
inactive: dose: 60.0 mg/kg/injection, schedule: Q01DX005 (ip), vehicle: saline 108 % of control | dose: 120.0 mg/kg/injection, schedule: Q01DX005 (ip), vehicle: saline 100 % of control | dose: 240.0 mg/kg/injection, schedule: Q01DX005 (ip), vehicle: saline 107 % of control

COc1ccc(/C=C/C(=O)c2ccccc(=O)c2O)c(OC)c1
inactive: [2] 101 % of control | [10] 98 % of control | [11] 105 % of control | [12] 104 % of control

CNC1C(O)C(OC2C(N)CC(N)C(OC3OC(CN)=CCC3N)C2O)OCC1(C)O (centres undefined)
inactive: dose: 62.5 mg/kg/injection, schedule: Q01DX009 (ip), vehicle: saline 104 % of control | dose: 125.0 mg/kg/injection, schedule: Q01DX009 (ip), vehicle: saline 104 % of control

c1c[se]c(-c2nc3ccccc3[nH]2)c1
inactive: [1] 99 % of control | [2] 107 % of control | [10] 110 % of control | [11] 107 % of control

O=C1CC2(CCc3ccccc32)C(=O)N1CN1CCN(CCO)CC1 (centres undefined)
inactive: dose: 50.0 mg/kg/injection, schedule: Q01DX005 (ip), vehicle: saline 106 % of control | dose: 100.0 mg/kg/injection, schedule: Q01DX005 (ip), vehicle: saline 110 % of control | dose: 200.0 mg/kg/injection, schedule: Q01DX005 (ip), vehicle: saline 115 % of control

CC(=O)O/C1=C\CCCCCCCCCC1
inactive: dose: 50.0 mg/kg/injection, schedule: Q01DX005 (ip), vehicle: saline with Tween-80 95 % of control | dose: 100.0 mg/kg/injection, schedule: Q01DX005 (ip), vehicle: saline with Tween-80 90 % of control | dose: 200.0 mg/kg/injection, schedule: Q01DX005 (ip), vehicle: saline with Tween-80 110 % of control

CCOC(=O)Cn1nc([O-])[n+]2ccccc12
inactive: dose: 100.0 mg/kg/injection, schedule: Q04DX002 (ip), vehicle: saline 100 % of control | dose: 200.0 mg/kg/injection, schedule: Q04DX002 (ip), vehicle: saline 107 % of control | dose: 400.0 mg/kg/injection, schedule: Q04DX002 (ip), vehicle: saline 98 % of control

CC(OC(=O)c1ccccc1C(=O)O)c1ccccc1 (centres undefined)
active: [9] 186 % of control
inactive: [13] 91 % of control | [4] 99 % of control and 101 % of control | [6] 101 % of control and 108 % of control and 98 % of control | [7] 104 % of control

COc1ccc(CSC(=S)Nc2ccc(C)c(C)c2)cc1
inactive: dose: 50.0 mg/kg/injection, schedule: Q01DX009 (ip), vehicle: suspension in saline 99 % of control | dose: 100.0 mg/kg/injection, schedule: Q01DX009 (ip), vehicle: suspension in saline 100 % of control | dose: 200.0 mg/kg/injection, schedule: Q01DX009 (ip), vehicle: suspension in saline 99 % of control

O=C(c1cc(F)ccc1Nc1ccccc1)N1CCOCC1
inactive: [13] 98 % of control | [4] 100 % of control | [6] 98 % of control and 109 % of control

C[C@]12C=CC(=O)NC[C@@H]1CC[C@@H]1[C@@H]2CC[C@]2(C)[C@@H](OC(=O)COc3ccc(N(CCCl)CCCl)cc3)CC[C@@H]12
inactive: dose: 7.5 mg/kg/injection, schedule: Q01DX005 (ip), vehicle: saline with Tween-80 120 % of control | dose: 15.0 mg/kg/injection, schedule: Q01DX005 (ip), vehicle: saline with Tween-80 120 % of control
active: dose: 30.0 mg/kg/injection, schedule: Q01DX005 (ip), vehicle: saline with Tween-80 151 % of control | dose: 60.0 mg/kg/injection, schedule: Q01DX005 (ip), vehicle: saline with Tween-80 198 % of control and 255 % of control | dose: 120.0 mg/kg/injection, schedule: Q01DX005 (ip), vehicle: saline with Tween-80 157 % of control

c1ccc2c(Nc3ccc(C4=NCCN4)cc3)nnc(Nc3ccc(C4=NCCN4)cc3)c2c1
inactive: dose: 3.13 mg/kg/injection, schedule: Q04DX003 (ip), vehicle: saline with Tween-80 100 % of control | dose: 6.25 mg/kg/injection, schedule: Q04DX003 (ip), vehicle: saline with Tween-80 110 % of control | dose: 12.5 mg/kg/injection, schedule: Q04DX003 (ip), vehicle: saline with Tween-80 110 % of control
active: [3] 195 % of control | [5] 210 % of control | dose: 100.0 mg/kg/injection, schedule: Q01DX009 (ip), vehicle: saline with Tween-80 250 % of control | [8] 154 % of control and 168 % of control

Cc1cc(O)c(CCC(C)CCCC(C)C)c(O)c1 (centres undefined)
inactive: [10] 100 % of control | [11] 100 % of control | [12] 110 % of control

COc1cc(C2c3cc4c(cc3[C@@H](OC3OC(COC(C)=O)C(OC(C)=O)C(OC(C)=O)C3OC(C)=O)[C@H]3COC(=O)[C@H]23)OCO4)cc(OC)c1OC (some centres undefined)
inactive: dose: 4.0 mg/kg/injection, schedule: Q01DX005 (ip), vehicle: saline 107 % of control | dose: 8.0 mg/kg/injection, schedule: Q01DX005 (ip), vehicle: saline 113 % of control | dose: 16.0 mg/kg/injection, schedule: Q01DX005 (ip), vehicle: saline 105 % of control | dose: 32.0 mg/kg/injection, schedule: Q01DX005 (ip), vehicle: saline 98 % of control and 105 % of control | dose: 64.0 mg/kg/injection, schedule: Q01DX005 (ip), vehicle: saline 100 % of control | dose: 128.0 mg/kg/injection, schedule: Q01DX005 (ip), vehicle: saline 100 % of control

Cc1ccc(S(=O)(=O)N/N=C/c2c(Cl)n(C)c3ccccc23)cc1
inactive: dose: 100.0 mg/kg/injection, schedule: Q01DX001 (ip), vehicle: Klucel (hydroxypropylcellulose) (HPC) 91 % of control | dose: 200.0 mg/kg/injection, schedule: Q01DX001 (ip), vehicle: Klucel (hydroxypropylcellulose) (HPC) 97 % of control | dose: 400.0 mg/kg/injection, schedule: Q01DX001 (ip), vehicle: Klucel (hydroxypropylcellulose) (HPC) 100 % of control

Nc1ncnc2c1nc(F)n2C1OC(CO)C(O)C1O (centres undefined)
inactive: dose: 6.25 mg/kg/injection, schedule: Q01DX005 (ip), vehicle: saline 107 % of control | dose: 12.5 mg/kg/injection, schedule: Q01DX005 (ip), vehicle: saline 108 % of control | dose: 25.0 mg/kg/injection, schedule: Q01DX005 (ip), vehicle: saline 108 % of control

From PubChem BioAssay AID330 (DTP/NCI, 2004)
